Experimental data as given in ChEMBL document CHEMBL5356982, “Truncated derivatives of amphidinol 3 reveal the functional role of polyol chain in sterol-recognition and pore formation” (Bioorg Med Chem Lett, 2024).
Activity calls are given as the source filed them. The rule behind the calls is not given here.

Legend:
[1] = tested on: Aspergillus niger; assay: Antifungal activity against Aspergillus niger NBRC 31012 assessed as inhibition zone incubated for 2 days by disk diffusion method; type: functional; conditions: time 2 day
[2] = target: Lipid bilayer; assay: Binding affinity to 10% Ergosterol containing DOPC liposomes assessed as dissociation constant for first step at 50 uM and measured from 300 to 600 sec by SPR method
[3] = target: Lipid bilayer; assay: Binding affinity to 10% Ergosterol containing DOPC liposomes assessed as dissociation constant for second step at 50 uM and measured from 300 to 600 sec by SPR method
[4] = target: Lipid bilayer; assay: Binding affinity to 10% Ergosterol containing DOPC liposomes assessed as dissociation constant at equilibrium at 50 uM and measured from 300 to 600 sec by SPR method
[5] = target: Lipid bilayer; assay: Binding affinity to DOPC liposomes assessed as dissociation constant for first step at 50 uM and measured from 300 to 600 sec by SPR method
[6] = target: Lipid bilayer; assay: Binding affinity to DOPC liposomes assessed as dissociation constant for second step at 50 uM and measured from 300 to 600 sec by SPR method
[7] = target: Lipid bilayer; assay: Binding affinity to DOPC liposomes assessed as dissociation constant at equilibrium at 50 uM and measured from 300 to 600 sec by SPR method
[8] = tested on: Lipid bilayer; assay: Induction of pore formation in 10% Ergosterol containing DOPC liposomes assessed as calcein dye leakage by measuring calcein fluorescence by fluorescence microplate reader analysis
[9] = tested on: Lipid bilayer; assay: Induction of pore formation in DOPC liposomes assessed as calcein dye leakage by measuring calcein fluorescence at 27 uM by fluorescence microplate reader analysis
[10] = tested on: Lipid bilayer; assay: Binding affinity to DOPC liposomes at 50 uM and measured upto 600 sec by SPR method
[11] = tested on: Lipid bilayer; assay: Induction of pore formation in 10% Ergosterol containing DOPC liposomes assessed as calcein dye leakage by measuring calcein fluorescence at 10 uM by fluorescence microplate reader analysis
[12] = tested on: Lipid bilayer; assay: Induction of pore formation in 10% Ergosterol containing DOPC liposomes assessed as calcein dye leakage by measuring calcein fluorescence at 27 uM by fluorescence microplate reader analysis
[13] = tested on: Lipid bilayer; assay: Binding affinity to 10% Ergosterol containing DOPC liposomes at 50 uM and measured upto 600 sec by SPR method

With `C=C/C=C/CC/C=C/C=C/C=C/CC/C=C/[C@H](O)[C@H](O)[C@@H]1O[C@@H]([C@H](O)[C@H](O)C(=C)CC[C@@H](O)[C@@H]2C[C@H](O)[C@H](O)[C@@H]([C@H](O)[C@@H](O)/C=C(\C)CC[C@H](O)C[C@H](O)[C@H](O)[C@@H](C)C[C@H](O)[C@@H](O)CCCCC[C@@H](O)CCC[C@@H](O)/C=C/C[C@@H](O)/C=C/C[C@@H](O)CO)O2)C[C@@H](O)[C@H]1O` the MIC [1] was 8 µg, the Kd [2] was 51 µM and the Kd [3] was 2.4 µM. It also gave a Kd [4] of 0.00012 µM, a Kd [5] of 980 µM and a Kd [6] of 6300 µM. For the same compound, the Kd [7] was 6.9 µM, the EC50 [8] was 2.96 µM and the Activity [9] was “Active”.
`C=C/C=C/CC/C=C/C=C/C=C/CC/C=C/[C@H](O)[C@H](O)[C@@H]1O[C@@H]([C@H](O)[C@H](O)C(=C)CC[C@@H](O)[C@@H]2C[C@H](O)[C@H](O)[C@@H]([C@H](O)[C@@H](O)/C=C(\C)CC[C@H](O)C[C@H](O)[C@H](O)[C@@H](C)CCO)O2)C[C@@H](O)[C@H]1O` was tested, and the MIC [1] was 20 µg, the Kd [2] was 25 µM and the step-2 equilibrium ratio [3] was 0.044. For the same compound, the Kd [4] was 1 µM, the Activity [10] was “inactive” and the Activity [11] was “Active”. For the same compound, the Activity [12] was “inactive”.
For `C=C/C=C/CC/C=C/C=C/C=C/CC/C=C/[C@H](O)[C@H](O)[C@@H]1O[C@@H]([C@H](O)[C@H](O)C(=C)CC[C@@H](O)[C@@H]2C[C@H](O)[C@H](O)[C@@H]([C@H](O)[C@@H](O)CO)O2)C[C@@H](O)[C@H]1O`, the MIC [1] was over 300 µg, the Activity [13] was “inactive” and the Activity [10] was “inactive”. The Activity [12] was “inactive”.
